# Data published in patent US4400394A, “Benzylidene derivatives” (priority 1975, dated 1983).
# Assays:
# [1] = Acute toxicity in mice (LD 50, intraperitoneal); details: mouse, in vivo, ip, CD1 mice, deaths recorded 48 hours after administration, determined graphically
# Experimental: I. Acute toxicity in mice
# The compounds of the invention and the reference substances were administered intraperitoneally to CD1 mice. The 50% lethal dose (LD 50) was determined graphically. The number of dead animals 48 hours after intraperitoneal administration was recorded.
# [2] = tested on: convulsions induced by bicuculline in mice; test: Antagonism to convulsions induced by bicuculline in mice (anti-bicuculline activity); assay type: in vivo; details: Mus musculus, ip, intraperitoneal, dose which protects 50% of the animals against the effect of bicuculline, read-out: Anti-bicuculline activity, AD 50 (intraperitoneal administration)
# Experimental: II. GABA-animetic activity of the compounds (I)
# The experimental method of Curtis, D. R., et al., Brain Res., 1971, 33, 57 and Perez de la Mora, N., Biochem. Pharmacol., 1973, 22, 2,635, was used.
# The 50% active doses (AD 50), namely the doses which protect 50% of the animals against the effect of bicuculline, were evaluated for the substances studied.
# [3] = oral or parenteral administration; cited from earlier work
# epilepsy = details: cited from earlier work
SMILES,LD50 at 48 h [1],ED50 [2],crossing of the blood-brain barrier (in words) [3],side-effects (in words) (epilepsy; administration of GABA),"use in epilepsy (in words) (epilepsy; some cases of epilepsy, very large quantities needed)"
"O=C(O)CCCN=C(c1ccccc1)c1cc(Cl)ccc1O [75,005]",350 mg/kg,120 mg/kg,,,
"O=C(O)CCCCN=C(c1ccccc1)c1ccccc1O [75,006]",700 mg/kg,250 mg/kg,,,
"O=C(O)CCCN=C(c1ccccc1)c1cc(F)ccc1O [75,010, Sodium 4-N-(α-phenyl-5-fluoro-2-hydroxy-benzylidenyl)-amino-butyrate]",600 mg/kg,125 mg/kg,,,
"O=C(O)CCCN=C(c1cc(F)ccc1O)c1ccccc1F [75,017]",525 mg/kg,175 mg/kg,,,
"O=C(O)CCN=C(c1ccccc1)c1ccccc1O [75,019]",830 mg/kg,425 mg/kg,,,
"O=C(O)CCCN=C(c1cc(F)ccc1O)c1ccccc1Cl [75,027]",375 mg/kg,125 mg/kg,,,
"Cc1ccccc1C(=NCCCC(=O)O)c1cc(F)ccc1O [75,029]",475 mg/kg,250 mg/kg,,,
"NC(=O)CN=C(c1ccccc1)c1ccccc1O [75,037]",1350 mg/kg,20 mg/kg,,,
"O=C(O)CCCN=C(c1cccc(F)c1)c1cc(F)ccc1O [75,044, Sodium 4-N-[α-(3-fluorophenyl)-5-fluoro-2-hydroxy-benzylidenyl]-amino-butyrate]",850 mg/kg,250 mg/kg,,,
"O=C(O)CCCN=C(c1ccc(F)cc1)c1cc(F)ccc1O [75,045, Sodium 4-N-[α-(4-fluorophenyl)-5-fluoro-2-hydroxy-benzylidenyl]-amino-butyrate]",650 mg/kg,125 mg/kg,,,
"O=C(O)CCCN=C(c1ccccc1O)c1ccccc1F [75,046]",675 mg/kg,225 mg/kg,,,
"Cc1ccc(O)c(C(=NCCCC(=O)O)c2ccccc2F)c1 [75,053]",600 mg/kg,125 mg/kg,,,
"O=C(O)CCCCCCCCCCN=C(c1ccccc1)c1cc(F)ccc1O [75,054]",300 mg/kg,130 mg/kg,,,
"O=C(O)CCCCCN=C(c1ccccc1)c1cc(F)ccc1O [75,059]",800 mg/kg,200 mg/kg,,,
"O=C(O)CCCCCN=C(c1ccccc1)c1ccccc1O [75,074]",750 mg/kg,300 mg/kg,,,
"O=C(O)CCCCCCCCCCN=C(c1ccccc1)c1ccccc1O [75,075, Sodium 11-N-(α-phenyl-2-hydroxy-benzylidenyl)-amino-undecamoate]",210 mg/kg,100 mg/kg,,,
"O=C(O)CCCN=C(c1ccccc1O)c1ccccc1Cl [75,078]",350 mg/kg,110 mg/kg,,,
"NC(=O)CN=C(c1ccccc1)c1cc(F)ccc1O [75,083]",650 mg/kg,175 mg/kg,,,
"O=C(O)CCCCCCCN=C(c1ccccc1)c1ccccc1O [75,100]",600 mg/kg,300 mg/kg,,,
"O=C(O)CCCN=C(c1ccc(Cl)cc1)c1cc(F)ccc1O [75,102]",500 mg/kg,65 mg/kg,,,
"COc1ccc(C(=NCCCC(=O)O)c2ccccc2)c(O)c1 [75,107]",950 mg/kg,450 mg/kg,,,

SMILES,LD50 at 48 h [1],ED50 [2],crossing of the blood-brain barrier (in words) [3],side-effects (in words) (epilepsy; administration of GABA),"use in epilepsy (in words) (epilepsy; some cases of epilepsy, very large quantities needed)"
"COc1ccc(C(=NCCCC(=O)O)c2ccc(Cl)cc2)c(O)c1 [75,118]",525 mg/kg,225 mg/kg,,,
"Cc1ccc(O)c(C(=NCCCC(=O)O)c2ccccc2Cl)c1 [75,136]",350 mg/kg,110 mg/kg,,,
"NC(=O)CCCN=C(c1ccc(F)cc1)c1cc(F)ccc1O [75,166]",> 2000 mg/kg,180 mg/kg,,,
"NC(=O)CCCN=C(c1ccccc1)c1cc(F)ccc1O [75,167]",> 2000 mg/kg,100 mg/kg,,,
"CCOC(=O)CCCNC(=O)CCCN=C(c1ccccc1)c1cc(F)ccc1O [75,168]",975 mg/kg,500 mg/kg,,,
"NC(=O)CCCN=C(c1ccc(Cl)cc1)c1cc(F)ccc1O [76,002, 4-[(4-Chlorophenyl)-5-fluoro-2-hydroxy-benzylidenyl]-amino-butyramide]",900 mg/kg,65 mg/kg,,,
"O=C(CCCN=C(c1ccccc1)c1cc(F)ccc1O)NC1CC1 [76,010]",1250 mg/kg,250 mg/kg,,,
"O=C(CCCN=C(c1ccccc1)c1cc(F)ccc1O)NC1CCCC1 [76,011]",> 2000 mg/kg,365 mg/kg,,,
"O=C(CCCN=C(c1ccccc1)c1cc(F)ccc1O)Nc1ccccc1 [76,012]",> 2000 mg/kg,500 mg/kg,,,
"O=C(CCCN=C(c1ccccc1)c1cc(F)ccc1O)NCc1ccccc1 [76,013]",> 2000 mg/kg,200 mg/kg,,,
"CN(C)C(=O)CCCN=C(c1ccccc1)c1cc(F)ccc1O [76,022]",1400 mg/kg,350 mg/kg,,,
"CCCCN(CCCC)C(=O)CCCN=C(c1ccccc1)c1cc(F)ccc1O [76,023]",1700 mg/kg,300 mg/kg,,,
"O=C(CCCN=C(c1ccccc1)c1cc(F)ccc1O)NC1CCC1 [76,030]",> 2000 mg/kg,200 mg/kg,,,
"CC(C)NC(=O)CCCN=C(c1ccccc1)c1cc(F)ccc1O [76,031]",> 2000 mg/kg,500 mg/kg,,,
"CCCC(CCN=C(c1ccccc1)c1cc(F)ccc1O)C(=O)O (stereo not drawn) [76,085]",340 mg/kg,170 mg/kg,,,
"NC(=O)CCCN=C(c1cc(F)ccc1O)c1ccccc1Cl [76,086]",235 mg/kg,50 mg/kg,,,
"NC(=O)CCCN=C(c1cccc(Cl)c1)c1cc(F)ccc1O [76,091]",600 mg/kg,300 mg/kg,,,
"NCCCC(=O)O [GABA, γ-Aminobutyric acid]",> 4000 mg/kg,> 4000 mg/kg,does not easily cross the blood-brain barrier,"substantial sideeffects (hypotension, bradycardia, and sedation)",used with success in some cases of epilepsy
"NC(=O)CN1CCCC1=O [PIRACETAM, reference compound]",> 4000 mg/kg,500 mg/kg,,,
"O=C(O)CCCN=C(c1ccccc1)c1ccccc1O [SL 74,227]",975 mg/kg,500 mg/kg,,,
"O=C(O)CCCCN=C(c1ccccc1)c1cc(F)ccc1O [SL 75,106]",600 mg/kg,120 mg/kg,,,
